Test results: patent US20230114241A1, “METHODS OF TREATING EPILEPSY USING THE SAME” (Trevena, Inc., priority 2019, published 2023)

Target: human sphingosine-1-phosphate receptor 1 (S1P1) (Homo sapiens, UniProt P21453)
Assay: Inhibition of cAMP production (HTRF cAMP HiRange), S1P1 CHO-K1 cells
Format: cell-based
Settings: inhibition of cAMP production, S1P1; read-out: hS1P1 CAMP pEC50 (converted)
Method: Stable clonal Chinese hamster ovary K1 (CHO-K1) cells co-expressing EA-β-arrestin2 and the human sphingosine-1-phosphate receptor 1 (NM_001400, S1P1) with a C-terminal Prolink™ tag were purchased from DiscoverX corporation (Cat #: 93-0207C2).
Cell lines were cultured in AssayComplete™ Media 6 (DiscoverX Corporation, Cat #: 920018GF2) at 37° C. and 5% CO2 in a humidified CO2 and temperature-controlled incubator. To begin assay plating, cells were washed with Dulbecco's phosphate buffered saline (CellGro, Cat #: 21-031-CV) and lifted from the culturing flask by incubation (37° C., 5 min) with CellStripper (Cellgro, Cat #: 25-056-CI). […] Plated cells were incubated overnight at 37° C. and 5% CO2 in a humidified CO2 and temperature-controlled incubator.
Agonist-promoted G-protein responses were determined by measuring changes in intracellular cAMP using the HTRF® cAMP HiRange kit (CisBio, Cat #: 62AM6PEJ) based on time-resolved fluorescence resonance energy transfer (TR-FRET) technology. […] Following a 30-minute incubation at 37° C. and 5% CO2 in a humidified CO2 and temperature-controlled incubator, the components of the cAMP HiRange kit were added as per the manufacturer's instructions. After an hour incubation at room temperature, plates were analyzed by a BMG PheraStar microplate reader.
These values are normalized to fingolimod, a known agonist of the sphingosine-1-phosphate 1 receptor.

Chain of human sphingosine-1-phosphate receptor 1 (S1P1) (P21453 whole entry): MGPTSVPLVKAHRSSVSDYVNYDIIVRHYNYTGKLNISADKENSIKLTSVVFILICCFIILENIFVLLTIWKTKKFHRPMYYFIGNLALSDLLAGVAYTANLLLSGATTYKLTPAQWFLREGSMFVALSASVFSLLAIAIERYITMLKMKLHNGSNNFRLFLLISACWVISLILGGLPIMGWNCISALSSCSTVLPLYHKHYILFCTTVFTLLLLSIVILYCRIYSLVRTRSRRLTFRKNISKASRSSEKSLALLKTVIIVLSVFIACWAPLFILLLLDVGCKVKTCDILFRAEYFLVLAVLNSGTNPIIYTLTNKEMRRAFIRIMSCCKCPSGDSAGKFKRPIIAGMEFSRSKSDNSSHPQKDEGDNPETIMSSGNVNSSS

| SMILES | EC50 |
| --- | --- |
| CC(C)n1ccc2cc(-c3nc(-c4ccccc4F)cs3)ccc21 [Compound 403, 4-(2-fluorophenyl)-2-(1-isopropylindol-5-yl)thiazole] | > 316 nM |
| COc1cccc2oc(-c3ccc4c(c3)nnn4C(C)C)nc12 [Compound 424, 2-(1-isopropyl-1H-benzo[d][1,2,3]triazol-5-yl)-4-methoxy-benzo[d]oxazole] | < 316 nM |

Same assay, conditions: inhibition of cAMP production; potency; read-out: hS1P1 CAMP pEC50 (converted)

| SMILES | EC50 |
| --- | --- |
| CC(C)Nc1ccc(-c2nnc(-c3ccc4[nH]ncc4c3)o2)cc1C#N [Compound 351, 5-[5-(1H-indazol-5-yl)-1,3,4-oxadiazol-2-yl]-2-[(propan-2-yl)amino]benzonitrile] | < 316 nM |
| CC(C)n1ccc2cc(-c3nc(-c4ccccc4Cl)no3)ccc21 [Compound 320, 3-(2-chlorophenyl)-5-(1-isopropyl-1H-indol-5-yl)-1,2,4-oxadiazole] | < 316 nM |
| Cc1cc(C)cc(-c2noc(-c3ccc4c(c3)nnn4C(C)C)n2)c1 [Compound 204, 5-[3-(3,5-dimethy-lphenyl)-1,2,4-oxadiazol-5-yl]-1-(propan-2-yl)-1H-1,2,3-benzotriazole] | > 316 nM |
| COc1cccc(OC)c1-c1noc(-c2ccc3c(ccn3C(C)C)c2)n1 [Compound 325, 3-(2,6-dimethoxy-phenyl)-5-(1-isopropyl-indol-5-yl)-1,2,4-oxadiazole] | > 316 nM |
| CC(C)n1nnc2cc(-c3noc(-c4cnccn4)n3)ccc21 [Compound 78, 3-(1-isopropyl-1H-benzo[d][1,2,3]triazol-5-yl)-5-(pyrazin-2-yl)-1,2,4-oxadiazole] | > 316 nM |
| CCCCC1(CCCC)CC(=O)c2cc(-c3nc(-c4cccnc4)no3)ccc2O1 [Compound 188, 2,2-dibutyl-6-[3-(pyridin-3-yl)-1,2,4-oxadiazol-5-yl]-3,4-dihydro-2H-1-benzo-pyran-4-one] | > 316 nM |
| O=C(O)CCn1nnc2cc(-c3noc(-c4ccccc4Br)n3)ccc21 [Compound 134, 3-(5-(5-(2-bromophenyl)-1,2,4-oxadiazol-3-yl)-1H-benzo[d][1,2,3]triazol-1-yl)propanoic acid] | > 316 nM |
| COc1ccc(-c2noc(-c3ccc4c(c3)nnn4C(C)C)n2)cc1OC [Compound 230, 3-(3,4-dimethoxy-phenyl)-5-(1-isopropyl-1H-benzo[d][1,2,3]triazol-5-yl)-1,2,4-oxadiazole] | > 316 nM |
| CC(C)n1ccc2cc(-c3nc(-c4ccccc4OC(F)(F)F)no3)ccc21 [Compound 321, 5-(1-isopropyl-1H-indol-5-yl)-3-(2-(trifluoro-methoxy)phenyl)-1,2,4-oxadiazole] | > 316 nM |
| CCCn1nnc2cc(-c3nc(-c4cc(C)cc(C)c4)no3)ccc21 [Compound 76, 5-[3-(3,5-dimethyl-phenyl)-1,2,4-oxadiazol-5-yl]-1-propyl-1H-1,2,3-benzotriazole] | > 316 nM |
| C=CCNc1ccc(-c2nc(-c3ccc4[nH]ccc4c3)no2)cc1C#N [Compound 208, 5-(3-(1H-indol-5-yl)-1,2,4-oxadiazol-5-yl)-2-(allylamino) benzonitrile] | < 316 nM |
| CCC1(CC)CC(=O)c2cc(-c3nc(-c4ccc(NC)cc4)no3)ccc2O1 [Compound 153, 2,2-diethyl-6-(3-(4-(methylamino)phenyl)-1,2,4-oxadiazol-5-yl)chroman-4-one] | > 316 nM |
| CCC1(CC)CC(=O)c2cc(-c3nnc(-c4ccc5c(c4)nnn5C(C)C)s3)ccc2O1 [Compound 67, 2,2-diethyl-6-(5-(1-isopropyl-1H-benzo[d][1,2,3]triazol-5-yl)-1,3,4-thiadiazol-2-yl)chroman-4-one] | > 316 nM |
| CCC1(CC)CC(=O)c2cc(-c3nnc(-c4cccnc4)s3)ccc2O1 [Compound 104, 2,2-diethyl-6-(5-(pyridin-3-yl)-1,3,4-thiadiazol-2-yl)chroman-4-one] | < 316 nM |
| CC(C)n1nnc2cc(-c3nc(-c4ccc(OCc5ccccc5)cc4)no3)ccc21 [Compound 53, 5-{3-[4-(benzyloxy)phenyl]-1,2,4-oxadiazol-5-yl}-1-(propan-2-yl)-1H-1,2,3-benzotriazole] | > 316 nM |
